Experimental data published in the NIST ThermoML archive (doi:10.1021/acs.jced.5b00367).

Experiments:
[1] = Crystal; visual observation
[2] = mn = molality of the nth substance listed, in mol/kg; settings: 303.15 K, 100 kPa, Liquid, Alternating current cell with electrodes
[3] = wn = mass fraction of the nth substance listed; settings: 101 kPa, Liquid, Alternating current cell with electrodes, w1 = 0.01

CCCCCCCCCCCC[N+](C)(C)CC[N+](C)(C)CCCCCCCCCCCC.[Br-].[Br-] [1,2-bis(dimethyldodecylammonium)ethane dibromide]
Settings	Normal melting temperature [°C]
[1]	157.00

CCCCCCCCCCCCCCCC[N+](C)(C)C.[Br-] [N,N,N-trimethyl-1-hexadecanaminium bromide]
Settings	Normal melting temperature [°C]
[1]	247.00

CCCCCCCCCCCCCCCC[N+](C)(C)CC[N+](C)(C)CCCCCCCCCCCCCCCC.[Br-].[Br-] + O
[2]
Settings	electrical conductivity [S/m]
m1 = 5e-06	0.00031
m1 = 1e-05	0.0004
m1 = 1.5e-05	0.00049
m1 = 2e-05	0.00058
m1 = 2.5e-05	0.00065
m1 = 3e-05	0.00073
m1 = 3.5e-05	0.0008
m1 = 4e-05	0.00082
m1 = 5e-05	0.00086
m1 = 6e-05	0.00088

CCCCCCCCCCCC[N+](C)(C)C.[Br-] [dodecyltrimethylammonium bromide]
Settings	Normal melting temperature [°C]
[1]	265.00

CCCCCCCCCCCCCCCC[N+](C)(C)CC[N+](C)(C)CCCCCCCCCCCCCCCC.[Br-].[Br-]
Settings	Normal melting temperature [°C]
[1]	175.00

CCCCCCCCCC[N+](CC)(CC)CCCCCCCCCC.[Br-] [didecyldiethylammonium bromide]
Settings	Normal melting temperature [°C]
[1]	45.00

CCCCCCCCCCCC[N+](C)(C)CC[N+](C)(C)CCCCCCCCCCCC.[Br-].[Br-] [1,2-bis(dimethyldodecylammonium)ethane dibromide] + O
Settings	electrical conductivity [S/m]
[2], m1 = 0.000201	0.00422
[2], m1 = 0.000301	0.00612
[2], m1 = 0.000402	0.00816
[2], m1 = 0.000503	0.00967
[2], m1 = 0.000603	0.012
[2], m1 = 0.000703	0.0133
[2], m1 = 0.000803	0.0162
[2], m1 = 0.001206	0.0197
[2], m1 = 0.001407	0.0205
[2], m1 = 0.001608	0.0212
[2], m1 = 0.001809	0.022
[2], m1 = 0.00201	0.0226
[2], m1 = 0.002211	0.0231
[3], 275.15 K	0.0196
[3], 276.25 K	0.0196
[3], 277.35 K	0.0196
[3], 278.15 K	0.0196
[3], 279.45 K	0.0197
[3], 280.25 K	0.0197
[3], 281.35 K	0.0197
[3], 282.15 K	0.0197
[3], 283.15 K	0.0198
[3], 284.25 K	0.0198
[3], 285.15 K	0.0198
[3], 285.65 K	0.0198
[3], 286.15 K	0.0199
[3], 288.15 K	0.0202
[3], 289.15 K	0.0203
[3], 290.15 K	0.0204
[3], 291.15 K	0.0205
[3], 292.15 K	0.0206
[3], 293.15 K	0.021
[3], 295.75 K	0.0212
[3], 298.15 K	0.0215
[3], 299.65 K	0.0218
[3], 301.65 K	0.022
[3], 303.45 K	0.0222
[3], 305.75 K	0.0225
[3], 308.15 K	0.0228
[3], 310.25 K	0.0229
[3], 311.15 K	0.023
[3], 313.15 K	0.0232
[3], 315.15 K	0.0235
[3], 317.95 K	0.0237
[3], 318.15 K	0.024
[3], 320.55 K	0.0242
[3], 323.15 K	0.0244
[3], 325.55 K	0.0245
[3], 327.15 K	0.0248
[3], 329.35 K	0.0249
[3], 331.55 K	0.025
[3], 334.15 K	0.0252
[3], 335.55 K	0.0254
[3], 337.95 K	0.0255
[3], 338.35 K	0.0258
[3], 340.45 K	0.026
[3], 343.15 K	0.0263
[3], 345.15 K	0.0265
[3], 347.15 K	0.0266
[3], 349.15 K	0.0267
[3], 353.05 K	0.027

CCCCCCCCCCCCCCCC[N+](CC)(CC)CCCCCCCCCCCCCCCC.[Br-] [diethyldihexadecylammonium bromide]
Settings	Normal melting temperature [°C]
[1]	73.80

CCCCCCCCCCCC[N+](CC)(CC)CCCCCCCCCCCC.[Br-] [didodecyldiethylammonium bromide]
Settings	Normal melting temperature [°C]
[1]	52.20
